“And” between values parts separate entries of the source, which are not always exact repeats. Equal entries are not always repeated.
System: T2 soybean events expressing the indicated Amaranthus PPO2 variant transgene
Experiment: Soybean PPO inhibitor tolerance testing, injury score (Table C)
Assay type: in vivo, Soybean cv Jake
Settings: V2 stage, 3 days after treatment, individual plants
Description: Soybean cv Jake is transformed as previously described by Siminszky et al., Phytochem Rev. 5:445-458 (2006). After regeneration, transformants are transplanted to soil in small pots, placed in growth chambers (16 hr day/8 hr night; 25° C. day/23° C. night; 65% relative humidity; 130-150 microE m-2 s-1) and subsequently tested for the presence of the T-DNA via Taqman analysis. After a few weeks, healthy, transgenic positive, single copy events are transplanted to larger pots and allowed to grow in the growth chamber. An optimal shoot for cutting is about 3-4 inches tall, with at least two nodes present. Each cutting is taken from the original transformant (mother plant) and dipped into rooting hormone powder (indole-3-butyric acid, IBA). The cutting is then placed in oasis wedges inside a bio-dome. The mother plant is taken to maturity in the greenhouse and harvested for seed. Wild type cuttings are also taken simultaneously to serve as negative controls. The cuttings are kept in the bio-dome for 5-7 days and then transplanted to 3 inch pots and then acclimated in the growth chamber for two more days. Subsequently, the cuttings are transferred to the greenhouse, acclimated for approximately 4 days prior to spray. […] g ai/ha saflufenacil plus 1% MSO and/or 25-200 g ai/ha 1,5-dimethyl-6-thioxo-3-(2,2,7-trifluoro-3-oxo-4-(prop-2-ynyl)-3,4-dihydro-2H-benzo[b][1,4]oxazin-6-yl)-1,3,5-triazinane-2,4-dione (CAS 1258836-72-4) plus 1% MSO. Other PPO inhibiting herbicides are also tested in a similar fashion for confirming cross resistance: flumioxazin, butafenacil, acifluorfen, lactofen, bifenox, sulfentrazone, methyl 2-[2-chloro-5-[3-chloro-5-(trifluoromethyl)-2-pyridyl]-4-fluoro-phenoxy]-2-methoxy-acetate, ethyl 2-[2-chloro-5-[3-chloro-5-(trifluoromethyl)-2-pyridyl]-4-fluoro-phenoxy]-2-methoxy-acetate, prop-2-ynyl 2-[2-chloro-5-[3-chloro-5-(trifluoromethyl)-2-pyridyl]-4-fluoro-phenoxy]-2-methoxy-acetate and photosynthesis inhibitor diuron as negative control. […]
The following gives a definition of the injury scores measured above: […]

[1] = soybean T2, transgene L397E_F420M, 25 g ai/ha + 1% v/v MSO
[2] = soybean T2, transgene L397E_F420M, 50 g ai/ha + 1% v/v MSO
[3] = soybean T2, transgene L397E_F420M, 100 g ai/ha + 1% v/v MSO
[4] = soybean T2, transgene L397E_F420M, 200 g ai/ha + 1% v/v MSO
[5] = soybean T2, transgene L397Q_F420M, 25 g ai/ha + 1% v/v MSO
[6] = soybean T2, transgene L397Q_F420M, 50 g ai/ha + 1% v/v MSO
[7] = soybean T2, transgene L397Q_F420M, 100 g ai/ha + 1% v/v MSO
[8] = soybean T2, transgene L397Q_F420M, 200 g ai/ha + 1% v/v MSO
[9] = soybean T2, transgene R128A_F420I event 1, 25 g ai/ha + 1% v/v MSO
[10] = soybean T2, transgene R128A_F420I event 1, 50 g ai/ha + 1% v/v MSO
[11] = soybean T2, transgene R128A_F420I event 1, 100 g ai/ha + 1% v/v MSO
[12] = soybean T2, transgene R128A_F420I event 1, 200 g ai/ha + 1% v/v MSO
[13] = soybean T2, transgene R128A_F420I event 2, 25 g ai/ha + 1% v/v MSO
[14] = soybean T2, transgene R128A_F420I event 2, 50 g ai/ha + 1% v/v MSO
[15] = soybean T2, transgene R128A_F420I event 2, 100 g ai/ha + 1% v/v MSO
[16] = soybean T2, transgene R128A_F420I event 2, 200 g ai/ha + 1% v/v MSO
[17] = soybean T2, transgene R128A_F420I event 3, 25 g ai/ha + 1% v/v MSO
[18] = soybean T2, transgene R128A_F420I event 3, 50 g ai/ha + 1% v/v MSO
[19] = soybean T2, transgene R128A_F420I event 3, 100 g ai/ha + 1% v/v MSO
[20] = soybean T2, transgene R128A_F420I event 3, 200 g ai/ha + 1% v/v MSO
[21] = soybean T2, transgene R128A_F420V, 25 g ai/ha + 1% v/v MSO
[22] = soybean T2, transgene R128A_F420V, 50 g ai/ha + 1% v/v MSO
[23] = soybean T2, transgene R128A_F420V, 100 g ai/ha + 1% v/v MSO
[24] = soybean, Non transgenic, 25 g ai/ha + 1% v/v MSO
[25] = soybean, Non transgenic, 50 g ai/ha + 1% v/v MSO
[26] = soybean, Non transgenic, 100 g ai/ha + 1% v/v MSO
[27] = soybean, Non transgenic, 200 g ai/ha + 1% v/v MSO

CCOC(=O)C(OC)Oc1cc(-c2ncc(C(F)(F)F)cc2Cl)c(F)cc1Cl (stereo not shown) [ethyl 2-[2-chloro-5-[3-chloro-5-(trifluoromethyl)-2-pyridyl]-4-fluoro-phenoxy]-2-methoxy-acetate]
injury on a 0-9 point scale [1]: 0 (2×) and 9
injury on a 0-9 point scale [2]: 0 (2×) and 2
injury on a 0-9 point scale [3]: 3 (2×) and 9
injury on a 0-9 point scale [4]: 4 and 3 and 5
injury on a 0-9 point scale [5]: 1 and 9
injury on a 0-9 point scale [6]: 9 and 3 and 2
injury on a 0-9 point scale [7]: 2
injury on a 0-9 point scale [8]: 2 and 9
injury on a 0-9 point scale [9]: 0 (2×) and 1
injury on a 0-9 point scale [10]: 0 (2×) and 1
injury on a 0-9 point scale [11]: 4
injury on a 0-9 point scale [12]: 4 (2×) and 5
injury on a 0-9 point scale [13]: 2 and 5 and 1
injury on a 0-9 point scale [14]: 1 and 2
injury on a 0-9 point scale [15]: 5 and 9
injury on a 0-9 point scale [16]: 7 and 4 (2×)
injury on a 0-9 point scale [17]: 1
injury on a 0-9 point scale [18]: 1
injury on a 0-9 point scale [19]: 3 and 2
injury on a 0-9 point scale [20]: 3 (2×) and 4
injury on a 0-9 point scale [21]: 0
injury on a 0-9 point scale [22]: 5
injury on a 0-9 point scale [23]: 4
injury on a 0-9 point scale (soybean T2, transgene R128A_F420V, 200 g ai/ha + 1% v/v MSO): 4 and 5
injury on a 0-9 point scale [24]: 9
injury on a 0-9 point scale [25]: 9
injury on a 0-9 point scale [26]: 9
injury on a 0-9 point scale [27]: 9

C#CCOC(=O)C(OC)Oc1cc(-c2ncc(C(F)(F)F)cc2Cl)c(F)cc1Cl (stereo not shown) [prop-2-ynyl 2-[2-chloro-5-[3-chloro-5-(trifluoromethyl)-2-pyridyl]-4-fluoro-phenoxy]-2-methoxy-acetate]
injury on a 0-9 point scale [1]: 1 and 0 and 9
injury on a 0-9 point scale [2]: 0 (2×) and 1
injury on a 0-9 point scale [3]: 1
injury on a 0-9 point scale [4]: 3 (2×) and 4
injury on a 0-9 point scale [5]: 0
injury on a 0-9 point scale [6]: 2 and 1 and 0
injury on a 0-9 point scale [7]: 1 and 2 (2×)
injury on a 0-9 point scale [8]: 1 (2×) and 2
injury on a 0-9 point scale [9]: 0
injury on a 0-9 point scale [10]: 2 and 3 and 4
injury on a 0-9 point scale [11]: 5
injury on a 0-9 point scale [12]: 5 (2×) and 4
injury on a 0-9 point scale [13]: 0
injury on a 0-9 point scale [14]: 2 (2×) and 3
injury on a 0-9 point scale [15]: 4 (2×) and 5
injury on a 0-9 point scale [16]: 5
injury on a 0-9 point scale [17]: 0
injury on a 0-9 point scale [18]: 2
injury on a 0-9 point scale [19]: 1
injury on a 0-9 point scale [20]: 3 and 4
injury on a 0-9 point scale [21]: 2
injury on a 0-9 point scale [22]: 4 (2×) and 5
injury on a 0-9 point scale [23]: 4
injury on a 0-9 point scale [24]: 9
injury on a 0-9 point scale [25]: 9
injury on a 0-9 point scale [26]: 9
injury on a 0-9 point scale [27]: 9

— patent publication US11149030B2, “Plants having increased tolerance to herbicides” (BASF AGRO B.V., priority 2016, dated 2021)
